Holding throughout (assay): DTP human tumour cell line panel, 48 h
In test [1] the test system is IGROV1 ovarian.
In test [2] the test system is K-562 leukemia.
Test [3] has as its system MDA-N.
The test system of test [4] is MDA-MB-231 breast.
The test system of test [5] is SNB-19 CNS.
The subject of test [6] is SF-539 CNS.
In test [7] the test system is SN12C renal.
In test [8] the test system is SK-MEL-28 melanoma.
The test system of test [9] is HCT-116 colon.
Test [10] has as its system UO-31 renal.
Test [11] has as its system HS 578T breast.
For test [12], the system named is MOLT-4 leukemia.
The subject of test [13] is HOP-62 NSCLC.
Test [14] has as its system HCC-2998 colon.
The test system of test [15] is UACC-257 melanoma.
Test [16] deals with PC-3 prostate.
Test [17] deals with NCI/ADR-RES ovarian.
The test system of test [18] is SK-MEL-2 melanoma.
Test [19] deals with UACC-62 melanoma.
The subject of test [20] is BT-549 breast.

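Step 1: Grow cells in 96-well plates. Step 2: Expose to compound for 48 hours at 5 concentrations. Step 3: Interpolate endpoints linearly; if unreached, use highest concentration. The concentration for full growth arrest is given as TGI.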

For the molecule `[O-][n+]1onc2c1/C(=N/O)CCC2`, the TGI in [1], in test [2], in test [3], in test [4], in [5] and in test [6] was greater than 100 µM each time. Further, the TGI in test [7], in test [8], in test [9], in [10], in test [11] and in test [12] was greater than 100 µM in each case. For the same molecule, the TGI in test [13], in [14], in test [15], in [16], in [17] and in test [18] was greater than 100 µM in each case. For the same molecule, in [19], the TGI (as a rule, the concentration at which net growth stops) was greater than 100 µM.
Consider `C/C(=N\NC(=S)N(C)CCN(C)C(=S)N/N=C(\C)c1ccccn1)c1ccccn1`, for which the total growth inhibition concentration (TGI) in test [1] was 3.96 µM; in [2], 29.1 µM; in [3], 19.3 µM; in test [4], 13.1 µM; in test [5], 16.6 µM; in test [6], 11.8 µM. For the same molecule, the TGI was 6.91 µM in test [7]; 19.8 µM in test [8]; 11.5 µM in test [9]; 15.4 µM in test [10]; greater than 100 µM in test [11]; 46.3 µM in [12]. The TGI in [13] was 19 µM; in [14] it was 38 µM; in [15], 11 µM; in test [16], 18.8 µM; in [17], 2.02 µM; in test [18], 24.4 µM. Also, the TGI in test [19] came out at 8.07 µM.
`CC(C)(C)OC(=O)C1CC[C@@H](CC(=O)Oc2ccc([N+](=O)[O-])cc2)N1` (stereo partly specified): the TGI in test [1], in test [3], in test [4], in [5], in test [6] and in test [7] was greater than 100 µM in each case. Also, the TGI in [8], in [9], in test [10], in [12], in test [14] and in [15] was greater than 100 µM in each case. Besides, the TGI in test [16], in test [17], in test [18] and in [19] was greater than 100 µM each time.
Consider `COc1cccc(Cc2cc(=O)c3ccc(C)nc3[nH]2)c1`, for which the TGI in test [1], in [2], in test [3], in test [4], in test [5] and in [7] was greater than 100 µM throughout. Besides, the TGI in test [8], in test [9], in [10], in test [11], in [12] and in [13] was greater than 100 µM in each case. In addition, the TGI in test [15], in test [20], in test [17], in test [18] and in [19] was greater than 100 µM in each case.
Regarding `CCOC(=O)c1ccc(Nc2nc3ccccc3nc2C(=O)OCC)cc1`, the TGI in test [1], in test [2], in test [3], in test [4], in [5] and in test [6] was greater than 100 µM each time. For the same molecule, the TGI in test [7], in [8], in test [9], in [10], in [11] and in test [12] was greater than 100 µM in each case. Besides, the TGI in [13], in test [14], in test [20], in [17], in test [18] and in test [19] was greater than 100 µM throughout.
As for `CCC1C(=O)C(O)[C@H]2[C@@H]3C(O)CC4=CC(=O)CC[C@]4(C)[C@H]3CC[C@]12C` (stereo partly specified), the TGI in test [1], in [2], in test [3], in test [4], in [5] and in test [6] was greater than 50 µM each time. Further, the total growth inhibition concentration (TGI) in test [7], in [8], in test [9], in [10], in test [11] and in test [12] was greater than 50 µM in each case. Moreover, the TGI in test [13], in test [14], in [15], in test [16], in [17] and in test [18] was greater than 50 µM in each case. Further, the TGI in test [19] was greater than 50 µM.
Regarding `O=c1c2cc([N+](=O)[O-])ccc2n2n1CCCC2`, the TGI in [1], in test [2], in [3], in test [4], in test [5] and in test [6] was greater than 100 µM in each case. Further, the TGI in [7], in [8], in test [9], in test [10], in [11] and in test [12] was greater than 100 µM throughout. In addition, the concentration for total growth inhibition (TGI) in test [13], in test [14], in [15], in test [16], in [17] and in test [19] was greater than 100 µM each time.
